# Measurements as given in patent US11512279B2, “Technology to generate and utilize customized microorganism-growth assay keys” (priority 2018, dated 2022).
# How the values were obtained:
# C. auris [1] = experiment: Differentiation of C. auris from other Candida species with other QACs in growth media; type: cell-based; conditions: QAC added to growth medium
# C. auris [2] = experiment: Plate assay on Sabouraud dextrose medium with tBHP (FIGS. 13A-13B); type: cell-based, Candida auris; conditions: 30° C.
# Method: FIGS. 13A-13B illustrate C. auris's relative sensitivity to tBHP. FIG. 13A depicts a plate with a tBHP-containing culture medium that includes seven different yeasts (Candida albicans, Candida glabrata, Candida krusei, Candida auris, Candida haemulonii, Candida famata, and Saccharomyces cerevisiae) at five different calculated cell counts (62, 625, 6,250, […], with the uncertainty inherent in the calculation). The yeast-containing plate was incubated at 30° C. The plating scheme is illustrated in FIG. 1. The culture medium comprised a Sabouraud dextrose medium with tBHP (added after autoclaving the other media ingredients from a 70% solution in water). Whereas a resuspension of cells picked from a colony will always enhance the sensitivity of this (and related) assays, it is possible to streak cells without any dilution directly from a colony if the plate is evaluated early (after approximately 24 hours, some regrowth will occur later), as depicted in FIG. 13B. […]
# Candida rugosa = experiment: BAC media panel growth key (Table A, FIG. 19); type: cell-based; conditions: BAC low 1.5 mg/l or high 10 mg/l; pH 3.3 or 7.5; peptone, potato dextrose or YNB with amino acids; 23° C. or 37° C.
# Description: (§1) As an example, a group of 36 yeast strains with Candida-like morphology representing 29 different species was used to define single species or subgroups of species depending on their QAC sensitivity at different temperatures, pH values and in the presence of different supplements (e.g. peptone, potato dextrose, and YNB with amino acids).
# (§2) Preliminary tests were designed with several representative yeast strains with a range of benzalkonium chloride (“BAC”) concentrations, a mix of supplements, neutral pH, and intermediate temperature (30° C.). The observed growth characteristics made it likely that two BAC concentrations (“low”=1.5 mg/l and “high”=10 mg/l) could be used in conjunction with the three different growth supplements (used separately). Low and high pH and temperature values were defined to elicit species-specific growth responses: two different pH conditions (pH 3.3 and pH 7.5, adjusted with concentrations of HCl or 100 mg/ml NaOH) and incubation temperatures (23° C. and 37° C.). Commonly used concentrations for peptone (20 g/l), potato dextrose (24 g/l), and yeast nitrogen base with amino acids (6.7 g/l) were applied. […] For example: “pH7.5/low BAC/Pep-23° C.” refers to a plate with pH 7.5, […] BAC (low BAC) containing peptone as a growth supplement and incubated at 23° C.
# (§3) All 36 strains were streaked and precultured for 48 h on Sabauroud-dextrose medium at 30° C. before cell samples were suspended in water (as described before). 10-15 μl drops of these suspensions were applied to the different media and plates were incubated in parallel at 37° C. and 23° C. These drops were classified as growing (+) or non-growing (−) after 3 days or 5 days of incubation, respectively.
# Candida valida = experiment: BAC media panel growth key (Table A, FIG. 19); type: cell-based; conditions: BAC low 1.5 mg/l or high 10 mg/l; pH 3.3 or 7.5; peptone, potato dextrose or YNB with amino acids; 23° C. or 37° C.
# Description: as §1, §2, §3
# Candida guilliermondii = experiment: BAC media panel growth key (Table A, FIG. 19); type: cell-based; conditions: BAC low 1.5 mg/l or high 10 mg/l; pH 3.3 or 7.5; peptone, potato dextrose or YNB with amino acids; 23° C. or 37° C.
# Description: as §1, §2, §3
# Candida auris = experiment: BAC media panel growth key (Table A, FIG. 19); type: cell-based; conditions: BAC low 1.5 mg/l or high 10 mg/l; pH 3.3 or 7.5; peptone, potato dextrose or YNB with amino acids; 23° C. or 37° C.
# Description: as §1, §2, §3
compound,measurement,setting,value
CC(C)(C)CC(C)(C)c1ccc(OCCOCC[N+](C)(C)Cc2ccccc2)cc1 [benzethonium chloride],use to differentiate C. auris from other Candida species,C. auris [1],successfully used
CC(C)(C)OO [tert-butyl-hydroperoxide],sensitivity to tBHP relative to other yeasts,C. auris [2],relatively high sensitivity
CCCCCCCCCCCCCC[N+](C)(C)C.[Br-] [tetradecyltrimethylammonium bromide],use to differentiate C. auris from other Candida species,C. auris [1],successfully used
benzalkonium chloride,use to differentiate C. auris from other Candida species,C. auris [1],successfully used
same,growth pattern over 24 BAC / supplement / pH / temperature conditions,Candida rugosa,growth at the high concentration appears to be restricted to the low pH
same,growth pattern over 24 BAC / supplement / pH / temperature conditions,Candida valida,BAC sensitivity under all conditions
same,growth pattern over 24 BAC / supplement / pH / temperature conditions,Candida guilliermondii,growth is observed under all conditions at 23 °C but not 37 °C
same,growth pattern over 24 BAC / supplement / pH / temperature conditions,Candida auris,resistance to BAC under virtually all conditions
